Experimental data: patent US7557127B2, “HDAC inhibitor” (Astellas Pharma Inc., priority 2004, dated 2009)
Counter-ions that a name gives are not always drawn.

Legend:
[1] = system: splenic cells of Lewis rats; assay: Test 2: Determination of T-Cell Growth Inhibitor Activity (T lymphocyte blastogenesis test); type: cell-based; conditions: Rattus norvegicus, Concanavalin A added, 72 hours, AlamarBlue Assay, read-out: Test 2: T-cell growth inhibitory activity IC50
Method: Test 2: Determination of T-Cell Growth Inhibitor Activity The T lymphocyte blastogenesis test was performed in microtiter plates with each well containing 1.5×10^5 splenic cells of Lewis rats in 0.1 mL RPMI-1640 medium supplemented with 10% fetal bovine serum (FBS), […] 2-mercaptoethanol, penicillin (100 units/mL) and streptomycin (100 μg/mL), to which Concanavalin A (1 μl/mL) was added. The cells were incubated at 37° C. in a humidified atmosphere of 5% CO2 for 72 hours. After the culture period, suppressive activities of the test compounds in T lymphocyte blastogenesis were quantified by AlamarBlue (trademark) Assay. The test samples were dissolved in DMSO and further diluted with RPMI-1640 medium and added to the culture. The activities of the test compounds were expressed as IC50.

[2] = target: T1, human histone deacetylase; assay: Test 1: Determination of Histone Deacetylase Inhibitor Activity; type: biochemical; conditions: enzyme partially purified from human T cell leukemia Jurkat cells; [3H] acetyl-labeled histones; 25° C., 30 minutes; read-out: Test 1: HDAC inhibitory activity IC50
T1 construct: The human histone deacetylase was partially purified from human T cell leukemia Jurkat cells
Method: Test 1: Determination of Histone Deacetylase Inhibitor Activity
The partial purification of human histone deacetylase, the preparation of [^3H] acetyl histones, and the assay for histone deacetylase activity were performed basically according to the method as proposed by Yoshida et al. as follows.
Partial Purification of Human Histone Deacetylase
The human histone deacetylase was partially purified from human T cell leukemia Jurkat cells. Jurkat cells (5×10^8 cells) were suspended in 40 mL of the HDA buffer consisting of 15 mM potassium phosphate, pH 7.5, 5% glycerol and 0.2 mM EDTA. After homogenization, nuclei were collected by centrifugation (35,000×g, 10 min) and homogenized in 20 mL of the same buffer supplemented with 1 M (NH4)2SO4. The viscous homogenate was sonicated and clarified by centrifugation (35,000×g, 10 min), and the deacetylase was precipitated by raising the concentration of (NH4)2SO4 to 3.5 M. The precipitated protein was dissolved in 10 mL of the HDA buffer and dialyzed against 4 liters of the same buffer. The dialyzate was then loaded onto a DEAE-cellulose (Whatman DE52) column (25×85 mm) equilibrated with the same buffer and eluted with 300 mL of a linear gradient (0-0.6 M) of NaCl. A single peak of histone deacetylase activity appeared between 0.3 and 0.4 M NaCl.
Preparation of [^3H] Acetyl Histone
To obtain [^3H] acetyl-labeled histone as the substrate for the histone deacetylase assay, 1×10^8 cells of Jurkat in 20 mL of RPMI-1640 medium (supplemented with 10% FBS, penicillin (50 units/mL) and streptomycin (50 μg/mL)) were incubated with 300 MBq [^3H] sodium acetate in the presence of 5 mM sodium butyrate for 30 minutes in 5% CO2-95% air atmosphere at 37° C. in a 75 cm^2 flask, harvested into a centrifuge tube (50 mL), collected by centrifugation at 1000 rpm for 10 minutes, and washed once with phosphate-buffered saline. The washed cells were suspended in 15 mL of ice-cold lysis buffer (10 mM Tris-HCl, 50 mM sodium bisulfite, 1% Triton X-100, 10 mM MgCl2, 8.6% sucrose, pH 6.5). After Dounce homogenization (30 stroke), the nuclei were collected by centrifugation at 1000 rpm for 10 minutes, washed 3 times with 15 mL of the lysis buffer, and once with 15 mL of ice-cooled washing buffer (10 mM Tris-HCl, 13 mM EDTA, pH 7.4) successively. The pellet was suspended in 6 mL of ice-cooled water using a mixer, and 68 μl of H2SO4 was added to the suspension to give a concentration of 0.4 N. After incubation at 4° C. for 1 hour, the suspension was centrifuged for 5 minutes at 15, 000 rpm, and the supernatant was taken and mixed with 60 mL of acetone. After overnight incubation at −20° C., the coagulated material was collected by microcentrifugation, air-dried, and stored at −80° C.
Assay for Histone Deacetylase Activity
For the standard assay, 10 μl of [^3H] acetyl-labeled histones were added to 90 μl of the enzyme fraction, and the mixture was incubated at 25° C. for 30 minutes. The reaction was stopped by addition of 10 μL of HCl. The released [^3H] acetic acid was extracted with 1 mL of ethyl acetate, and 0.9 mL of the solvent layer was taken into 10 mL of toluene scintillation solution for determination of radioactivity.

Question: What does the source list for `O=C(/C=C/c1cnc(N[C@@H]2CCN(Cc3ccccc3)C2)cn1)NO` [Example 82, (2E)-3-(5-{[(3R)-1-Benzyl-3-pyrrolidinyl]amino}-2-pyrazinyl)-N-hydroxyacrylamide dihydrochloride]?
Answer: IC50 [1]: < 25 nM; IC50 [2]: < 10 nM

Question: Which results are given for `O=C(/C=C/c1cnc(N[C@@H]2CCN(Cc3ccc(Cl)cc3)C2)cn1)NO` [Example 74, (2E)-3-(5-{[(3R)-1-(4-chlorobenzyl)-3-pyrrolidinyl]amino}-2-pyrazinyl)-N-hydroxyacrylamide dihydrochloride]?
Answer: IC50 [1]: < 25 nM; IC50 [2]: < 10 nM

Question: How did the IC50 [1] turn out when `O=C(/C=C/c1cnc(N[C@@H]2CCN(C3CCCCC3)C2)cn1)NO` [Example 123, (2E)-3-(5-{[(3R)-1-cyclohexyl-3-pyrrolidinyl]amino}-2-pyrazinyl)-N-hydroxyacrylamide dihydrochloride] was run?
Answer: < 25 nM

Question: And the IC50 [2]?
Answer: < 10 nM

Question: `O=C(/C=C/c1cnc(N[C@@H]2CCN(Cc3ccc(F)cc3)C2)cn1)NO` [Example 116, (2E)-3-(5-{[(3R)-1-(4-fluorobenzyl)-3-pyrrolidinyl]amino}-2-pyrazinyl)-N-hydroxyacrylamide dihydrochloride] was tested. Which IC50 [1] did it give?
Answer: < 25 nM

Question: And the IC50 [2]?
Answer: < 10 nM

Question: For `O=C(/C=C/c1ccc(N[C@@H]2CCN(CC3CCCCC3)C2)nc1)NO` [Example 60, (2E)-3-(6-{[(3R) 1-(Cyclohexylmethyl)-3-pyrrolidinyl]amino}-3-pyridyl)-N-hydroxyacrylamide dihydrochloride], which IC50 [1] is on record?
Answer: < 25 nM

Question: And the IC50 [2]?
Answer: < 10 nM

Question: Which results are given for `O=C(/C=C/c1ccc(N[C@@H]2CCN(Cc3ccccc3)C2)nc1)NO` [Example 3, (2E)-3-(6-{[(3R)-1-Benzyl-3-pyrrolidinyl]amino}-3-pyridyl)-N-hydroxyacrylamide dihydrochloride]?
Answer: IC50 [1]: < 25 nM; IC50 [2]: < 10 nM

Question: Which IC50 [1] does the source give for `O=C(/C=C/c1cnc(N[C@@H]2CCN(CCc3ccccc3)C2)cn1)NO` [Example 119, (2E)-N-hydroxy-3-(5-{[(3R)-1-(2-phenylethyl)-3-pyrrolidinyl]amino}-2-pyrazinyl)acrylamide dihydrochloride] here?
Answer: < 25 nM

Question: What about the IC50 [2] of the same compound?
Answer: < 10 nM

Question: `O=C(/C=C/c1cnc(N[C@@H]2CCCN(Cc3ccccc3)C2)cn1)NO` [Example 76, (2E)-3-(5-{[(3R)-1-Benzyl-3-piperidinyl]amino}-2-pyrazinyl)-N-hydroxyacrylamide dihydrochloride] was tested. Which IC50 [1] did it give?
Answer: < 25 nM

Question: And the IC50 [2]?
Answer: < 10 nM

Question: Which results are given for `CC1=C(CN2CC[C@@H](Nc3ccc(/C=C/C(=O)NO)cn3)C2)C(C)(C)CCC1` [Example 189, (2E)-N-hydroxy-3-[6-({(3R)-1-[(2,6,6-trimethyl-1-cyclohexen-1-yl)methyl]-3-pyrrolidinyl}amino)-3-pyridinyl]acrylamide dihydrochloride]?
Answer: IC50 [1]: < 25 nM; IC50 [2]: < 10 nM

Question: `O=C(/C=C/c1cnc(N[C@@H]2CCN(C(=O)C3CCCCC3)C2)c(Cl)c1)NO` [Example 174, (2E)-3-(5-chloro-6-{[(3R)-1-(cyclohexylcarbonyl)-3-pyrrolidinyl]amino}-3-pyridinyl)-N-hydroxyacrylamide hydrochloride] was tested. Which IC50 [1] did it give?
Answer: < 25 nM

Question: What about the IC50 [2] of the same compound?
Answer: < 10 nM
